Data set [1] concerns oncolytic RNA viruses including vesicular stomatitis virus (VSV) and Measles. The following applies: cited from earlier work.
The nature of data set [2]: Solubility of vanadium complex solid in water / PBS buffer.
Data set [3] is described as follows: Stability of vanadium complexes in water and PBS buffer (NMR, pH over time). The settings on record: pH adjusted to 7.4 where needed.

A value given as a limit tells only on which side of the number the result lay.

As to `Cc1occc(=O)c1[O-].Cc1occc(=O)c1[O-].[O]=[V+2]` [bismaltolatoxovanadate (BMOV), bismaltolatoxovanadate], in data set [1], the “Effect on replication and spread of oncolytic RNA viruses” value (shortened to “Effect on replication and spread”) is “improve the replication and spread of oncolytic RNA viruses”.
With `[O]=[V]([O-])([O-])[O-]` [orthovanadate], in data set [1], the “Effect on replication and spread” value was “improve the replication and spread of oncolytic RNA viruses”.
For the compound `O=S(=O)([O-])[O-].[O]=[V+2]` [vanadyl sulfate], the “Effect on replication and spread” value in data set [1] is “improve the replication and spread of oncolytic RNA viruses”.
“K3[(VO2)2(C6H6O7)(C6H5O7)]×3 H2O [CDOS150]”: the “pH up to which the solid dissolved” value in data set [2] (solid dissolved into water and phosphate buffered saline (PBS) buffer) was at most 5. For the same compound, in data set [3], the “Stability in solution and need for pH adjustment” value is reported as “the solutions did require initial pH adjustment”.
Regarding Na3[(V^IVO)2(C6H4O7)(C6H5O7)] [CDOS155], the Solubility entry in data set [2] (in water) is listed as “soluble in water”. Also, the “pH up to which the solid dissolved” value in data set [2] (solid mixed with PBS buffer) was at most 5. The “Stability in solution and need for pH adjustment” value in data set [3] is given as “limited at pH 7.4 but similar in water or PBS but required continuous pH adjustment”.

Source of the values: patent US20220396593A1, “SYNTHESIS AND CHARACTERIZATION OF VANADIUM COMPLEXES” (priority 2021, published 2022).
